According to patent US20170165286A1, “COMPOSITIONS AND METHODS FOR TREATING DIABETES AND LIVER DISEASES” (Cempra Pharmaceuticals, Inc., priority 2014, published 2017):

Experiments:
STAM mice = assay: STAM model: liver triglyceride content; type: in vivo
Method: (§1) NASH-HCC (STAM™) Model. C57BL/6 (15-day-pregnant female) mice are obtained from Charles River Laboratories Japan (Kanagawa, Japan). Male pups are selected for the study. NASH is induced in male mice by a single subcutaneous injection of 200 μg streptozotocin (STZ, Sigma-Aldrich, USA) solution 2 days after birth, followed by feeding a HFD (57 kcal % fat, cat#: HFD32, CLEA Japan, Japan) beginning at 4 weeks of age. At 5 weeks of age, mice are divided into a control group and one or more treated group (generally 8 mice per group). Animals are sacrificed at 9 weeks of age, and biochemical, histological, and gene expression analyses are performed.
(§2) During weeks 5-9 (starting at day 35±2), test compound is administered (generally orally) at various doses diluted to 10 mL/kg and according to various dosing protocols to treatment groups (8 mice each) while a second group (8 mice) is administered vehicle only. Animals are sacrificed at 9 weeks.
Measurement of liver biochemistry—liver triglyceride content. Liver total lipid-extracts are obtained by Folch's method (Folch J. et al., J. Biol. Chem., 1957; 226:497). Liver samples are homogenized in chloroform-methanol (2:1, v/v) and incubated overnight at room temperature. After washing with chloroform-methanol-water (8:4:3, v/v/v), the extracts are evaporated to dryness, and dissolved in isopropanol. Liver triglyceride (TG) and cholesterol contents were measured by Triglyceride E-test and Cholesterol E-test (Wako Pure Chemical Industries, Japan), respectively. Extracts are diluted 2-fold in isopropanol when the triglyceride content exceeds the detection limit.
(§3) Illustrative dose response test groups. Group 1-Normal. Eight normal mice are fed with a normal diet ad libitum without any treatment until 9 weeks of age. Group 2-Vehicle. Eight NASH mice are orally administered vehicle (0.5% w/v methylcellulose+0.2% Tween®80) in a volume of 10 mL/kg twice daily from 5 to 9 week of age. Group 3-solithromycin 5 mg/kg. Eight NASH mice are orally administered vehicle supplemented with solithromycin at a dose of 5 mg/kg in the morning and the vehicle in the evening (5 mg/kg/day) from 5 to 9 weeks of age. Group 4-solithromycin 10 mg/kg. Eight NASH mice are orally administered vehicle supplemented with solithromycin at a dose of 10 mg/kg twice daily (20 mg/kg/day) from 5 to 9 weeks of age. Group 5-solithromycin 25 mg/kg. Eight NASH mice are orally administered vehicle supplemented with solithromycin at a dose of 25 mg/kg twice daily (50 mg/kg/day) from 5 to 9 weeks of age. Group 6-solithromycin 50 mg/kg. Eight NASH mice are orally administered vehicle supplemented with solithromycin at a dose of 50 mg/kg once daily (50 mg/kg/day) from 5 to 9 weeks of age.

[1] = tested on: liver mRNA expression levels; assay: STAM model: quantitative RT-PCR of liver; type: in vivo, mice
Method: as §1, §2, §3
Quantitative RT-PCR. Total RNA is extracted from liver samples using RNAiso (Takara Bio, Japan) according to the manufacturer's instructions. One μg of RNA is reverse-transcribed using a reaction mixture containing 4.4 mM MgCl2 (Roche, Switzerland), 40 U RNase inhibitor (Toyobo, Japan), 0.5 mM dNTP (Promega, USA), 6.28 μM random hexamer (Promega), 5× first strand buffer (Promega), 10 mM dithiothreitol (Invitrogen) and 200 U MMLV-RT (Invitrogen) in a final volume of 20 μL. The reaction is carried out for 1 hour at 37° C., followed by 5 minutes at 99° C. Real-time PCR is performed using real-time PCR DICE and SYBR premix Taq (Takara Bio). To calculate the relative mRNA expression level, the expression of each gene is normalized to that of reference gene 36B4 (gene symbol: Rplp0). PCR-primer sets are described in copending U.S. provisional application No. 62/086,911, the disclosure of which is incorporated herein by reference.

[2] = QT / tQT effects and plasma levels; type: in vivo
Description: The compounds described herein, including solithromycin, are effective in treating host animals with high cardiovascular disease risk.

[3] = STAM mice liver, 5 mg/kg, listed as SOLI
[4] = STAM mice liver, 10 mg/kg, listed as SOLI
[5] = STAM mice liver, 25 mg/kg, listed as SOLI

Compound: CC[C@H]1OC(=O)[C@@](C)(F)C(=O)[C@H](C)[C@@H](O[C@@H]2O[C@H](C)C[C@H](N(C)C)[C@H]2O)[C@](C)(OC)C[C@@H](C)C(=O)[C@H](C)[C@H]2N(CCCCn3cc(-c4cccc(N)c4)nn3)C(=O)O[C@]12C [solithromycin]
- Liver triglyceride (STAM mice; 5 mg/kg q.d.): 127.7 ± 62.3 mg/g liver
- Liver triglyceride (STAM mice; 10 mg/kg b.i.d.): 161.8 ± 44.5 mg/g liver
- Liver triglyceride (STAM mice; 25 mg/kg b.i.d.): 100.8 ± 35.3 mg/g liver
- Liver triglyceride content compared to vehicle group (STAM mice; any doses (Groups 3-6)): no statistically significant differences
- Col1a2/36B4 relative mRNA expression ([1]; STAM mice liver, 5 mg/kg): 3.6 ± 1.7
- FBPase/36B4 relative mRNA expression ([1]; STAM mice liver, 5 mg/kg): 1.2 ± 0.2
- G6pc/36B4 relative mRNA expression ([1]; STAM mice liver, 5 mg/kg): 3.0 ± 0.7
- Gck/36B4 relative mRNA expression ([1]; STAM mice liver, 5 mg/kg): 0.5 ± 0.2
- Glut 2/36B4 relative mRNA expression ([1]; STAM mice liver, 5 mg/kg): 0.8 ± 0.1
- MCP-1/36B4 relative mRNA expression ([1]; STAM mice liver, 5 mg/kg): no statistically significant differences
- MMP-9/36B4 relative mRNA expression ([1]; STAM mice liver, 5 mg/kg): no statistically significant differences
- Pck1/36B4 relative mRNA expression ([1]; STAM mice liver, 5 mg/kg): 1.5 ± 0.1
- TGF-β/36B4 relative mRNA expression ([1]; STAM mice liver, 5 mg/kg): 2.1 ± 0.4
- TNF-α/36B4 relative mRNA expression ([1]; STAM mice liver, 5 mg/kg): 3.1 ± 1.2
- Timp-1/36B4 relative mRNA expression ([1]; STAM mice liver, 5 mg/kg): 16.0 ± 15.7
- α-SMA/36B4 relative mRNA expression ([1]; STAM mice liver, 5 mg/kg): 3.8 ± 1.9
- MCP-1/36B4 relative mRNA expression [1, 3]: 7.2 ± 4.0
- MMP-9/36B4 relative mRNA expression [1, 3]: 2.9 ± 0.8
- Col1a2/36B4 relative mRNA expression ([1]; STAM mice liver, 10 mg/kg): 2.8 ± 1.0
- FBPase/36B4 relative mRNA expression ([1]; STAM mice liver, 10 mg/kg): 1.2 ± 0.2
- G6pc/36B4 relative mRNA expression ([1]; STAM mice liver, 10 mg/kg): 2.4 ± 0.5
- Gck/36B4 relative mRNA expression ([1]; STAM mice liver, 10 mg/kg): 0.4 ± 0.2
- Glut 2/36B4 relative mRNA expression ([1]; STAM mice liver, 10 mg/kg): tended to down-regulated
- MCP-1/36B4 relative mRNA expression ([1]; STAM mice liver, 10 mg/kg): no statistically significant differences
- MMP-9/36B4 relative mRNA expression ([1]; STAM mice liver, 10 mg/kg): no statistically significant differences
- Pck1/36B4 relative mRNA expression ([1]; STAM mice liver, 10 mg/kg): 1.5 ± 0.4
- TGF-β/36B4 relative mRNA expression ([1]; STAM mice liver, 10 mg/kg): 1.8 ± 0.4
- TNF-α/36B4 relative mRNA expression ([1]; STAM mice liver, 10 mg/kg): 3.0 ± 0.7
- Timp-1/36B4 relative mRNA expression ([1]; STAM mice liver, 10 mg/kg): 11.9 ± 6.8
- α-SMA/36B4 relative mRNA expression ([1]; STAM mice liver, 10 mg/kg): 3.7 ± 1.0
- Glut 2/36B4 relative mRNA expression [1, 4]: 0.8 ± 0.1
- MCP-1/36B4 relative mRNA expression [1, 4]: 5.2 ± 1.9
- MMP-9/36B4 relative mRNA expression [1, 4]: 3.0 ± 1.1
- Col1a2/36B4 relative mRNA expression ([1]; STAM mice liver, 25 mg/kg): 2.9 ± 1.2
- FBPase/36B4 relative mRNA expression ([1]; STAM mice liver, 25 mg/kg): Statistically significant reduced
- G6pc/36B4 relative mRNA expression ([1]; STAM mice liver, 25 mg/kg): Statistically significant reduced
- Gck/36B4 relative mRNA expression ([1]; STAM mice liver, 25 mg/kg): 0.6 ± 0.4
- Glut 2/36B4 relative mRNA expression ([1]; STAM mice liver, 25 mg/kg): 0.9 ± 0.1
- MCP-1/36B4 relative mRNA expression ([1]; STAM mice liver, 25 mg/kg): no statistically significant differences
- MMP-9/36B4 relative mRNA expression ([1]; STAM mice liver, 25 mg/kg): no statistically significant differences
- Pck1/36B4 relative mRNA expression ([1]; STAM mice liver, 25 mg/kg): 1.3 ± 0.6
- TGF-β/36B4 relative mRNA expression ([1]; STAM mice liver, 25 mg/kg): 1.8 ± 0.5
- TNF-α/36B4 relative mRNA expression ([1]; STAM mice liver, 25 mg/kg): 3.4 ± 1.3
- Timp-1/36B4 relative mRNA expression ([1]; STAM mice liver, 25 mg/kg): 11.0 ± 8.6
- α-SMA/36B4 relative mRNA expression ([1]; STAM mice liver, 25 mg/kg): 3.3 ± 1.2
- FBPase/36B4 relative mRNA expression [1, 5]: 1.0 ± 0.2
- G6pc/36B4 relative mRNA expression [1, 5]: 1.9 ± 0.7
- MCP-1/36B4 relative mRNA expression [1, 5]: 4.9 ± 1.9
- MMP-9/36B4 relative mRNA expression [1, 5]: 2.6 ± 0.5
- FBPase mRNA expression levels compared to vehicle group ([1]; STAM mice liver, all doses): significantly down-regulated
- G6pc mRNA expression levels compared to vehicle group ([1]; STAM mice liver, all doses): significantly down-regulated
- Collagen Type 1 mRNA expression levels compared to vehicle group ([1]; STAM mice liver, any doses): no significant differences
- Gck mRNA expression levels compared to vehicle group ([1]; STAM mice liver, any doses): no significant differences
- Pck1 mRNA expression levels compared to vehicle group ([1]; STAM mice liver, any doses): no significant differences
- TGF-β mRNA expression levels compared to vehicle group ([1]; STAM mice liver, any doses): no significant differences
- TIMP-1 mRNA expression levels compared to vehicle group ([1]; STAM mice liver, any doses): no significant differences
- TNF-α mRNA expression levels compared to vehicle group ([1]; STAM mice liver, any doses): no significant differences
- α-SMA mRNA expression levels compared to vehicle group ([1]; STAM mice liver, any doses): no significant differences
- Glut 2 mRNA expression levels compared to vehicle group ([1]; STAM mice liver, solithromycin groups other than 10 mg/kg): no significant differences
- MMP-9 mRNA expression levels in the liver ([1]; STAM mice, 50 mg/kg q.d., normalized vehicle 1.00±0.34): 0.59±0.25
- MCP-1 mRNA expression levels in the liver ([1]; STAM mice, 50 mg/kg q.d., normalized vehicle 1.00±0.42): 0.64±0.14
- Plasma levels achieved ([2]; PK analysis in QT evaluation): 2000 to 3000 ng/mL
- QT or tQT prolongation ([2]; dosed orally or intravenously): does not show any QT or tQT prolongation
